The numbers were not newly measured in patent US9107877B2, “Method of treating onychomycosis” (Polichem SA, priority 2013, dated 2015), which cites them from elsewhere.

For data set [1], the system named is onychomycosis. The following applies: 48 weeks of daily topical treatment, 12-week follow up.
In data set [2] the test system is onychomycosis. The following applies: oral, 250 mg tablet a day for 12 weeks.

With `Cc1cc(C2CCCCC2)n(O)c(=O)c1` [ciclopirox], in data set [1], the Complete cure result was “about 13%” and the Responders was approximately 30%. As for `CN(C/C=C/C#CC(C)(C)C)Cc1cccc2ccccc12` [terbinafine], the “Complete cure, % of patients” value in data set [2] was 38%.
